What was measured:
[1] = system: angiotensin II-induced hypertensive rats; experiment: Effect on blood pressure in angiotensin II-induced hypertensive rats; type: in vivo, Sprague-Dawley rats; conditions: male SD rats, single equimolar dose ig (0.11 mg/kg example 1; 0.123 mg/kg example 2) in 0.5% methyl cellulose, AII 100 ng/kg iv again after 24 hours, Mean±S.E.
Description: The effect of compounds of the present invention on blood pressure in angiotensin II-induced hypertensive rats was investigated.
Male Sprague-Dawley rats (9-11 weeks old, CLEA Japan, Inc.) were anesthetized by pentobarbital solution (50 mg/kg, ip.) and prepared for surgery. The surgery procedure was as follows: made an incision through the skin on the abdomen and abdominal wall, separated the aorta and vein from the vena cava, occluded blood flow to allow introduction of a polyethylene (PE) tube filled with normal saline containing heparin (200 U/mL) into the vessel, passed the PE tube through the subcutaneous slits, and fixed the PE tube at the back of the neck. After recovery period, the rats were induced hypertension by intravenous administration of 100 ng/kg angiotensin II (AII). The PE tube was combined with a pressure transducer coupled to a blood pressure monitor amplifier (2238, NEC San-ei Instruments). The animals were enrolled based on average systolic blood pressure over 24 hours. All the animals with average systolic blood pressure less than 140 mmHg were excluded from this study, and the others were divided into 2 groups. […] The rats were injected intravenously AII again after 24 hours, and their blood pressure were measured by the monitor. The rat blood pressure inhibition ratios after dosing were calculated. […] The results were expressed as Mean±S.E. (Table 1).

[2] = system: angiotensin II-induced hypertensive dogs; experiment: Effect on blood pressure in angiotensin II-induced hypertensive dogs; type: in vivo; conditions: male Beagle dogs, equimolar dose ig (1.10 mg/kg example 1; 1.23 mg/kg example 2) in 0.5% methyl cellulose, mean±S.E.
Description: The effect of compounds of the present invention on blood pressure in angiotensin II-induced hypertensive dogs was investigated.
In this study, male Beagle dogs (weighting 12.0-14.7 kg, KITAYAMA LABES, CO., LTD.) were employed. The dogs were anesthetized by pentobarbital solution (50 mg/kg, ip) and prepared for surgery. The surgery procedure was as follows: made an endotracheal intubation for controlling the breathing, shaved the regions of femoral and back of the neck, fixed the dogs at the dorsal position, used isodine solution (MEIJI SEIKA KAISHA, LTD.) to sterilize the skins, made an incision through the skin on the right femoral region, separated the arteria femoralis, occluded blood flow to allow introduction of a mirror catheter (5 F, MILLER INDUSTRIES) and polyurethane tube into the aorta and vein, respectively, passed the tubes through the subcutaneous slits and fixed the tubes at the back, closed the wall and sutured the skin, and injected intramuscularly the penicillin G potassium (MEIJI SEIKA KAISHA, LTD., 40,000 units) for sterilization. For post-operative care, animals were administered 40,000 units penicillin G potassium intramuscularly once daily for 3 days. There was a recovery period before study ongoing.
The animals were singly housed in a small metabolic cage and fasted during the experiment. The mirror catheter was linked to a transducer unit (MILLER INDUSTRIES). Through a DC amplifier (N4777, NEC San-ei Instruments) and a blood pressure monitor amplifier (N4441, NEC San-ei Instruments), the blood pressure was recorded by a recorder (RECTI-HORIZ 8 K, NEC San-Ei Instruments). In order to establish a hypertension model, the dogs were injected intravenously 100 ng/kg AII for 3 or 4 times before dosing test articles. The test articles were an equal molar dose suspended in 0.5% methyl cellulose, and the dosing volume for all animals was 2 mL/kg. After administration, the blood pressure was measured by the monitor. The dog blood pressure inhibition ratios after dosing were calculated, and the results were expressed as mean±S.E. (Table 2).

Structure (SMILES): CCOc1nc2cccc(C(=O)O)c2n1Cc1ccc(-c2ccccc2-c2noc(=O)[nH]2)cc1.NCCO [Product of example 1, Azilsartan ethanolamine]
- Inhibition ratios (%) (blood pressure inhibition ratio after dosing) [1]: 57.4 ± 6.7%
- Inhibition ratios (%) 10 hr post dosing [2]: 82.7 ± 7.3%
- Inhibition ratios (%) 24 hr post dosing [2]: 61.6 ± 4.8%

Structure (SMILES): CCOc1nc2cccc(C(=O)O)c2n1Cc1ccc(-c2ccccc2-c2noc(=O)[nH]2)cc1.C[N+](C)(C)CCO [Product of example 2, Azilsartan choline]
- Inhibition ratios (%) (blood pressure inhibition ratio after dosing) [1]: 54.3 ± 5.1%
- Inhibition ratios (%) 10 hr post dosing [2]: 79.3 ± 8.6%
- Inhibition ratios (%) 24 hr post dosing [2]: 59.5 ± 6.3%

From patent US20120238606A1, “[…] AMINE SALTS, PREPARATION METHOD AND USE THEREOF” (JIANGSU HANS PHA[…] CO., LTD., priority 2009, published 2012)
